Experimental data from ChEMBL document CHEMBL6182835, “Distinctive roles of aquaporins and novel therapeutic opportunities against cancer” (RSC Med Chem, 2025).

How the values were obtained:
[1] = biological target: T1, Aquaporin-1 (Homo sapiens) (UniProt P29972); assay: Inhibition of AQP1 (unknown origin) at 20 uM relative to control
T1 sequence (whole entry): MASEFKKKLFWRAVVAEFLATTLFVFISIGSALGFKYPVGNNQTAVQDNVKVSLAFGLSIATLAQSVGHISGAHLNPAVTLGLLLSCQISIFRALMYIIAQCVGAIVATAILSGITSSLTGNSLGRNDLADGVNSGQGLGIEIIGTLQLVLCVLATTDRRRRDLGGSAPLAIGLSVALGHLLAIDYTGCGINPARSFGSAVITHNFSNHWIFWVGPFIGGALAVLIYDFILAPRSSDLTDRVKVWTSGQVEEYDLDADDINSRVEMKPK

Aquaporin-4 [2] = biological target: T2, Aquaporin-4 (Homo sapiens, UniProt P55087); assay: Inhibition of AQP4-M23 (unknown origin) relative to control; conditions: concentration not given here
T2 sequence (P55087 whole entry): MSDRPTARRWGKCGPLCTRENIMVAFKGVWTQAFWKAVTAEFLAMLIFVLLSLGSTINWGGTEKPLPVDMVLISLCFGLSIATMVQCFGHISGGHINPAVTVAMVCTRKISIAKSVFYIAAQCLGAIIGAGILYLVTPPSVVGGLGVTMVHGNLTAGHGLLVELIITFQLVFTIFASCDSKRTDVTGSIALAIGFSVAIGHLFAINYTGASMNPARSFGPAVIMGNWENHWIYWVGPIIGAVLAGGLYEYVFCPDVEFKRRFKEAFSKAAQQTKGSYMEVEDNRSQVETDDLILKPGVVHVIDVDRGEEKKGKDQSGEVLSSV

Aquaporin-4 [3] = biological target: T2, Aquaporin-4; assay: Inhibition of AQP4-M23 (unknown origin)
Aquaporin-3 [4] = biological target: T3, Aquaporin-3 (Homo sapiens, UniProt Q92482); assay: Inhibition of AQP3 (unknown origin)
T3 sequence (Q92482 whole entry): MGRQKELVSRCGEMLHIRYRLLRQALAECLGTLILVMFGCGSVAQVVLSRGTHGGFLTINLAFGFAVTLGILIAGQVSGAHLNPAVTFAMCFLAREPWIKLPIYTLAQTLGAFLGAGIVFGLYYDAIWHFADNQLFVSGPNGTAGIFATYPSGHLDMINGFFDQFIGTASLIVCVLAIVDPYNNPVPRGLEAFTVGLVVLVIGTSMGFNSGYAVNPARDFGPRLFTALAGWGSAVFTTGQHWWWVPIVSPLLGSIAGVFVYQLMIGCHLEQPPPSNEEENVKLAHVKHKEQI

[5] = Permeability of compound; type: ADME; conditions: not told; read-out: permeability
[6] = biological target: T4, Aquaporin-9 (Homo sapiens) (UniProt O43315); assay: Inhibition of AQP9 (unknown origin) expressed in xenopus laevis oocytes at 100 uM relative to control; type: cell-based; conditions: Oocyte
T4 sequence (whole entry): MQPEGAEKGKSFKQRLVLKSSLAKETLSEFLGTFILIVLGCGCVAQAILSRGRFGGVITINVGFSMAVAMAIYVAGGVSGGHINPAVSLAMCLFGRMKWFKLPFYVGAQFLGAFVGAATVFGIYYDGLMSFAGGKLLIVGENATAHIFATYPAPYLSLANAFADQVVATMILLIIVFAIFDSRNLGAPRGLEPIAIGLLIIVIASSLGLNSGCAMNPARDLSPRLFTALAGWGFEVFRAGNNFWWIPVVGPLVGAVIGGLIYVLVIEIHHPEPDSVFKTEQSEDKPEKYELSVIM

Aquaporin-9 = biological target: T5, Aquaporin-9 (Mus musculus, UniProt Q9JJJ3); assay: Inhibition of mouse AQP9
T5 sequence (Q9JJJ3 whole entry): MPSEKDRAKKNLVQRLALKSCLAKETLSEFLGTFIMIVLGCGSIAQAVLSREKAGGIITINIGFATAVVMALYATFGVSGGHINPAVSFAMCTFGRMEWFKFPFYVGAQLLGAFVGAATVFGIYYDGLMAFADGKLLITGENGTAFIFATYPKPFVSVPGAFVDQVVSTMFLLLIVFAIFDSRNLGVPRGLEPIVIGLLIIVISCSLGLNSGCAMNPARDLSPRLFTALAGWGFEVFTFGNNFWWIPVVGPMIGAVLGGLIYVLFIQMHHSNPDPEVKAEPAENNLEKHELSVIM

Aquaporin-3 [7] = biological target: T3, Aquaporin-3; assay: Inhibition of AQP3 channel in human erythrocyte assessed as inhibition of glycerol permeability; type: cell-based
Aquaporin-3 [8] = biological target: T3, Aquaporin-3; assay: Inhibition of human AQP3 expressed in CHO cells; type: cell-based
Aquaporin-3 [9] = biological target: T6, Aquaporin-3 (Mus musculus, UniProt Q8R2N1); assay: Inhibition of mouse AQP3
T6 sequence (Q8R2N1 whole entry): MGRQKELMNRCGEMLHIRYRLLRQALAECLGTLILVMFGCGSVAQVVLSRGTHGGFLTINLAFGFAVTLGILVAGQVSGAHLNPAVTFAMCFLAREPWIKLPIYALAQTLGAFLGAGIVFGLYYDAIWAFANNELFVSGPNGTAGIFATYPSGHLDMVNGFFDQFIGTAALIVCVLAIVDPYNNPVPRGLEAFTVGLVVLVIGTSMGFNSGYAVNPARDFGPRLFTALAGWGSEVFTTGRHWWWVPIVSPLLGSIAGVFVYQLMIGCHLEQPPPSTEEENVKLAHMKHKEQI

Aquaporin-1 = biological target: T7, Aquaporin-1 (Homo sapiens, UniProt P29972); assay: Binding affinity to AQP1 (unknown origin) expressed in HEK cells assessed as dissociation constant; type: cell-based
T7 sequence (P29972 whole entry): T1 sequence (whole entry)

In the case of `O=C(Nc1nncs1)c1cccnc1`, the inhibition [1] is reported as 56%, the inhibition (Aquaporin-4 [2]) is reported as 73% and the IC50 (Aquaporin-4 [3]) is reported as 3000 nM.
Work on `Cc1ccc(CC2(OCCN(C)C)CCC(C(C)(C)C)CC2)cc1` (stereo not drawn) yielded an IC50 (Aquaporin-3 [4]) of 27000 nM.
Molecule `O=C(CCc1ccc(O)cc1)c1c(O)cc(O)cc1O` [PHLORETIN] has a Papp [5] of about 2.8 ×10⁻⁶ cm/s and an inhibition [6] of 86%.
In the case of `CCOC(=O)c1ccc(NC(=O)NCc2ccc(-n3cccn3)cc2)cc1`, the IC50 (Aquaporin-9) is reported as 1100 nM, the IC50 (Aquaporin-3 [7]) is reported as about 600 nM and the IC50 (Aquaporin-3 [8]) is reported as 200 nM. For the same molecule, the IC50 (Aquaporin-3 [9]) was 700 nM.
With `CC(=O)Nc1nnc(S(N)(=O)=O)s1` [ACETAZOLAMIDE] the Kd (Aquaporin-1) was 174000 nM.
Work on `O=C(Nc1csc([N+](=O)[O-])c1)Nc1c(Cl)cccc1Cl` yielded an IC50 (Aquaporin-3 [7]) of about 200 nM and an IC50 (Aquaporin-3 [8]) of about 100 nM.
